Measurements published in patent US20110288042A1, “STABLE HIGHLY PURE AZACITIDINE AND PREPARATION METHODS THEREFOR” (CHEMAGIS LTD., priority 2007, published 2011).
Read-outs that look alike come from different tables or passages of the source.

Columns and labels:
[1] = Solution stability of 5-azacytidine in the HPLC diluent; type: physicochemical; settings: for Area (%) at RRT 1.00 (5-azacytidine) / Area (%) of peak at RRT 0.63 / Area (%) of peak at RRT 2.01 / Area (%) of peak at RRT 2.05 / Total impurities by % area: HPLC diluent, about 1.65 mg/ml
Experimental: (§1) The HPLC measurements were performed using a system equipped with an Inertsil C18 column (ODS-2, 5 microns, 250×4.6 mm (ODS-167)). Other parameters of the system were as follows: • Detection: UV detector operated on 242 nm • Column temperature: 20° C. • Run time: 45 minutes • Injection volume: 10 μl • Flow rate: 1.0 ml/minute • Sample set temperature: 5° C. • Sample concentration: about 1.65 mg/ml • Diluent: Mixture of 30% 10 mM ammonium acetate and 70% THF
(§2) Analyses were performed using the following mobile phase • Mobile Phase (Eluent) A: 10 mM ammonium acetate • Mobile Phase (Eluent) B: 60% 10 mM ammonium acetate, 40% MeOH

[2] = Solution stability of 5-azacytidine in water; type: physicochemical; settings: for Area (%) at RRT 1.00 (5-azacytidine) / Area (%) of peak at RRT 0.63 / Area (%) of peak at RRT 2.01 / Total impurities by % area / Area (%) of peak at RRT 1.70: water, about 1.65 mg/ml
Experimental: as §1, §2
Samples were withdrawn from the flask every consecutive hour and injected to the HPLC system.

[3] = cited from earlier work

- Area (%) at RRT 1.00 (5-azacytidine) ([1]; 5 hours): 96.11%
- Area (%) of peak at RRT 0.63 ([1]; 5 hours): 2.16%
- Area (%) of peak at RRT 2.01 ([1]; 5 hours): 1.37%
- Area (%) of peak at RRT 2.05 ([1]; 5 hours): 0.24%
- Total impurities by % area ([1]; 5 hours): 3.89%
- Area (%) at RRT 1.00 (5-azacytidine) ([1]; 6 hours): 96.00%
- Area (%) of peak at RRT 0.63 ([1]; 6 hours): 2.30%
- Area (%) of peak at RRT 2.01 ([1]; 6 hours): 1.36%
- Area (%) of peak at RRT 2.05 ([1]; 6 hours): 0.24%
- Total impurities by % area ([1]; 6 hours): 4.00%
- Area (%) at RRT 1.00 (5-azacytidine) ([1]; 7 hours): 95.85%
- Area (%) of peak at RRT 0.63 ([1]; 7 hours): 2.43%
- Area (%) of peak at RRT 2.01 ([1]; 7 hours): 1.37%
- Area (%) of peak at RRT 2.05 ([1]; 7 hours): 0.23%
- Total impurities by % area ([1]; 7 hours): 4.15%
- Area (%) at RRT 1.00 (5-azacytidine) ([1]; 8 hours): 95.74%
- Area (%) of peak at RRT 0.63 ([1]; 8 hours): 2.55%
- Area (%) of peak at RRT 2.01 ([1]; 8 hours): 1.37%
- Area (%) of peak at RRT 2.05 ([1]; 8 hours): 0.24%
- Total impurities by % area ([1]; 8 hours): 4.26%
- Area (%) at RRT 1.00 (5-azacytidine) ([1]; 9 hours): 95.63%
- Area (%) of peak at RRT 0.63 ([1]; 9 hours): 2.66%
- Area (%) of peak at RRT 2.01 ([1]; 9 hours): 1.37%
- Area (%) of peak at RRT 2.05 ([1]; 9 hours): 0.24%
- Total impurities by % area ([1]; 9 hours): 4.37%
- Area (%) at RRT 1.00 (5-azacytidine) ([1]; 10 hours): 95.50%
- Area (%) of peak at RRT 0.63 ([1]; 10 hours): 2.77%
- Area (%) of peak at RRT 2.01 ([1]; 10 hours): 1.37%
- Area (%) of peak at RRT 2.05 ([1]; 10 hours): 0.24%
- Total impurities by % area ([1]; 10 hours): 4.50%
- Area (%) at RRT 1.00 (5-azacytidine) ([1]; 11 hours): 95.40%
- Area (%) of peak at RRT 0.63 ([1]; 11 hours): 2.87%
- Area (%) of peak at RRT 2.01 ([1]; 11 hours): 1.37%
- Area (%) of peak at RRT 2.05 ([1]; 11 hours): 0.24%
- Total impurities by % area ([1]; 11 hours): 4.60%
- Area (%) at RRT 1.00 (5-azacytidine) ([2]; 0 hours): 97.47%
- Area (%) of peak at RRT 0.63 ([2]; 0 hours): 0.64%
- Area (%) of peak at RRT 2.01 ([2]; 0 hours): 1.59%
- Total impurities by % area ([2]; 0 hours): 2.53%
- Area (%) at RRT 1.00 (5-azacytidine) ([2]; 1 hour): 95.97%
- Area (%) of peak at RRT 0.63 ([2]; 1 hour): 2.16%
- Area (%) of peak at RRT 2.01 ([2]; 1 hour): 1.57%
- Total impurities by % area ([2]; 1 hour): 4.03%
- Area (%) at RRT 1.00 (5-azacytidine) ([2]; 4 hours): 91.38%
- Area (%) of peak at RRT 0.63 ([2]; 4 hours): 6.86%
- Area (%) of peak at RRT 2.01 ([2]; 4 hours): 1.46%
- Total impurities by % area ([2]; 4 hours): 8.62%
- Area (%) at RRT 1.00 (5-azacytidine) ([2]; 8 hours): 83.61%
- Area (%) of peak at RRT 0.63 ([2]; 8 hours): 14.68%
- Area (%) of peak at RRT 1.70 ([2]; 8 hours): 0.23%
- Area (%) of peak at RRT 2.01 ([2]; 8 hours): 1.36%
- Total impurities by % area ([2]; 8 hours): 16.39%
- Area (%) at RRT 1.00 (5-azacytidine) ([2]; 12 hours): 77.01%
- Area (%) of peak at RRT 0.63 ([2]; 12 hours): 21.28%
- Area (%) of peak at RRT 1.70 ([2]; 12 hours): 0.35%
- Area (%) of peak at RRT 2.01 ([2]; 12 hours): 1.25%
- Total impurities by % area ([2]; 12 hours): 22.99%
SMILES: Nc1ncn([C@@H]2O[C@H](CO)[C@@H](O)[C@H]2O)c(=O)n1 [5-azacytidine, 4-amino-1-β-D-ribofuranosyl-1,3,5-s-triazine-2(1H)-one]
- Solution stability in HPLC diluent ([1]; dissolved in the HPLC diluent): stable within the average time period needed to complete the HPLC method
- Solution stability in water ([2]; in water): unstable in water over prolonged time periods
- Solubility ([3]; in 5% Tween 80 in water): sparingly soluble
- Solubility ([3]; in 5% dextrose in water): sparingly soluble
- Solubility ([3]; in N-methyl-2-pyrrolidone): sparingly soluble
- Solubility ([3]; in acetone): insoluble
- Solubility ([3]; in dimethylsulfoxide (DMSO)): soluble
- Solubility ([3]; in ethanol/water (50/50)): slightly soluble
- Solubility ([3]; in ethanol): insoluble
- Solubility ([3]; in methyl ethyl ketone): insoluble
- Solubility ([3]; in normal saline): sparingly soluble
- Solubility ([3]; in polyethylene glycol): slightly soluble
- Solubility ([3]; in propylene glycol): slightly soluble
- Solubility ([3]; in water saturated octanol): sparingly soluble
- Solubility ([3]; in water): sparingly soluble
